Series [1] deals with isolated rat liver mitochondria. Description: Mitochondrial functional parameters in isolated liver mitochondria. The note with it: Compound 1 up to 200 nM, CsA up to 1 μM. Type of series: biochemical. As for the experimental part: Oxygen consumption was measured using Oroboros Oxygraph-2K as previously described (Astin et al, 2013). Prior to the assay, the Oxygraph chambers were calibrated with Miro5 buffer (0.5 mM EGTA, 3 mM MgCl2.6H2O, 60 mM K-lactobionate, 20 mM taurine, 10 mM KH2PO4, 20 mM HEPES, 110 mM sucrose, 1 g/l BSA (essentially fatty acid free)). Isolated mitochondria were suspended in Miro5 (at 100-200 μg/ml), loaded into the chamber together with substrates (malate, 2 mM; glutamate, 10 mM), and the O2 flow signal was allowed to stabilise to the basal respiration rate (approx. 10 min).
Freshly isolated mouse liver mitochondria were suspended in MSK buffer containing 10 ug/ml rhodamine123 (dequench mode), at a concentration of 500 ug/ml, and plated in an opaque black 96 well plate. Baseline fluorescence was then measured every 60 seconds for 5 minutes in a Fluostar Optima (Ex480/Em520) before manual addition of compounds (concentrations as specified). Fluorescence measurements were continued for 45 minutes until the addition of 2 uM FCCP, followed by a further 10 minutes of fluorescence readings.
Freshly isolated mitochondria were resuspended in MSK buffer (containing 10 mM glutamate and 2 mM malate) at 1 mg/ml and plated in opaque white 96 well plates, or for neuronal assays, neurons were used 9 days after plating at 15000 cells/well. Drugs were added at the concentrations specified, and for mitochondrial assays were incubated for ten minutes before addition of ADP (5 mM), followed by another 45 minutes. For neuronal assays, drugs were added in neurobasal medium and incubated for 60 minutes. Cell Titer Glo reagent was then added, and the plate shaken for 2 minutes in the dark to lyse cells/mitochondria and release ATP. The plates were incubated a further ten minutes and then luminescence values read using an Optima FluoStar.

The test system of series [2] is Ca^2+ mediated PT pore formation (CypD KO mitochondria). Description: Calcium retention capacity (CRC) assay, liver mitochondria from CypD knockout mice. Type of series: biochemical, mouse. How it is done:
Subcellular fractionation was performed as previously described (Astin et al, 2013). […] At 4° C., the liver was rinsed in PBS to remove excess blood, and any fat and connective tissue was eliminated. PBS was then replaced with isolation buffer containing 1 mM PMSF, and the liver was chopped into pieces (approximately 2 mm in length). Tissue was then homogenized in this solution until no solid matter remained, and then centrifuged at 800G for 10 minutes at 4° C. The nuclear pellet was then discarded, and the post nuclear supernatant retained, and centrifuged at 10300G for another 10 minutes at 4° C. […] Protein levels were quantified using a ThermoScientific BCA protein quantification assay, as per manufacturer's instructions.
Isolated mitochondria were resuspended (500 μg protein/ml) in MSK buffer (75 mM mannitol, 25 mM sucrose, 5 mM potassium phosphate monobasic, 20 mM Tris-HCl, 100 mM KCl, and 0.1% bovine serum albumin, pH 7.4) supplemented with 10 mM succinate, 1 μM rotenone and 1 μM Fluo5N. […] Compounds were incubated for ten minutes before the plate was assayed in a Fluostar Optima plate reader, using Ex/Em filters at 480/520 […]; CaCl2 was injected approximately every 6.5 minutes for 80 minutes (12 total injections, final concentration of 75 μM). […] Percentage inhibition for each [compound] was then calculated as the % of the corresponding value for the untreated condition. […]

`CC[C@@H]1NC(=O)[C@H]([C@H](O)[C@H](C)C/C=C/CCC[n+]2cccc3ccccc32)N(C)C(=O)[C@H](C(C)C)N(C)C(=O)[C@H](CC(C)C)N(C)C(=O)[C@H](CC(C)C)N(C)C(=O)[C@@H](C)NC(=O)[C@H](C)NC(=O)[C@H](CC(C)C)N(C)C(=O)[C@H](C(C)C)NC(=O)[C@H](CC(C)C)N(C)C(=O)CN(C)C1=O` [Compound 1, [Gly-(1S,2R,E)-8-quinolinium-1-hydroxy-2-methyloct-4-ene]^1 CsA]: the ATP production result in series [1] (isolated mitochondria with substrates and ADP) is “Neither mitochondrial membrane potential (FIG. 4A,B), oxygen consumption (FIG. 4C, D) and ATP production (FIG. 4E, F) were affected”. Moreover, in series [1] (isolated mitochondria, glutamate and malate), the oxygen consumption entry is “Neither mitochondrial membrane potential (FIG. 4A,B), oxygen consumption (FIG. 4C, D) and ATP production (FIG. 4E, F) were affected”. In addition, the mitochondrial membrane potential result in series [1] (isolated mitochondria, rhodamine-123) was “Neither mitochondrial membrane potential (FIG. 4A,B), oxygen consumption (FIG. 4C, D) and ATP production (FIG. 4E, F) were affected”. In addition, in series [2], the “effect on CRC” value is listed as “Neither CsA nor Compound 1 had any effect”.

(Values after patent publication US10494404B2, “Quinolinium conjugates of cyclosporin” (priority 2014, dated 2019).)
